Measurements taken from patent US9340511B2, “Process for making isoquinoline compounds” (FIBROGEN, INC., priority 2012, dated 2016).

Each compound was assayed on Hep3B cells (assay: Cell-Based EPO Assay). Settings: 30 μM compound in DMSO compared to DMSO only control, 72 hours, value minus vehicle control.
Design: species or system human
Protocol: Cell-Based EPO Assay Hep3B cells (human hepatocellular carcinoma cells from ATCC, cat # HB-8064) were plated at 25,000 cells per well 96 well plates. The next day, the cells were washed once with DMEM (Cellgro, cat #10-013-CM)+0.5% fetal bovine serum (Cellgro, cat #35-010-CV) and incubated with various concentrations of compound or vehicle control (0.15% DMSO) in DMEM+0.5% fetal bovine serum for 72 hours. Cell free culture supernatants were generated by transfer to a conical bottom 96 well plate and centrifugation for 5 minutes at 2000 rpm. The supernatant was quantitated for EPO using a human EPO ELISA kit (R&D Systems, cat # DEP 00). The EPO values for the compounds reported herein (e.g., Table 1) are the measured value for cells plus compound minus the value for the vehicle control for the same cell preparation. The EPO values for the vehicle control for the cell preparations used in experiments reported herein varied from 0-12.5 mIU/ml.
Cc1nc(C(=O)NCC(=O)O)c(O)c2c(Oc3ccccc3)cccc12 [Compound 1f, 2-(4-hydroxy-1-methyl-5-phenoxyisoquinoline-3-carboxamido)acetic acid] was tested, and the “Cell EPO* (mIU/ml)” value was 98.6 mIU/ml.
For Cc1nc(C(=O)NCC(=O)O)c(O)c2cc(Oc3ccccc3)ccc12 [Compound 2f, 2-(4-hydroxy-1-methyl-6-phenoxyisoquinoline-3-carboxamido)acetic acid], the “Cell EPO* (mIU/ml)” value was 78 mIU/ml.
With Cc1nc(C(=O)NCC(=O)O)c(O)c2cccc(Oc3ccccc3)c12 [Compound 4f, 2-(4-hydroxy-1-methyl-8-phenoxyisoquinoline-3-carboxamido)acetic acid] the “Cell EPO* (mIU/ml)” value was 52 mIU/ml.
In the case of COc1ccc(Oc2ccc3c(O)c(C(=O)NCC(=O)O)nc(C)c3c2)cc1 [Compound 5f, 2-[4-hydroxy-1-methyl-7-(4-methoxy-phenoxy)-isoquinoline-3-carboxamido]acetic acid], the “Cell EPO* (mIU/ml)” value is reported as 209 mIU/ml.
In the case of COc1ccc(Oc2ccc3c(C)nc(C(=O)NCC(=O)O)c(O)c3c2)cc1 [Compound 6f, 2-[4-hydroxy-1-methyl-6-(4-methoxy-phenoxy)-isoquinoline-3-carboxamido]acetic acid], the “Cell EPO* (mIU/ml)” value is reported as 191 mIU/ml.
Cc1nc(C(=O)NCC(=O)O)c(O)c2ccc(Oc3cc(F)cc(F)c3)cc12 [Compound 7f, 2-[4-hydroxy-1-methyl-7-(3,5-difluoro-phenoxy)-isoquinoline-3-carboxamido]acetic acid] was tested, and the “Cell EPO* (mIU/ml)” value was 225 mIU/ml.
In the case of Cc1nc(C(=O)NCC(=O)O)c(O)c2cc(Oc3cc(F)cc(F)c3)ccc12 [Compound 8f, 2-[4-hydroxy-1-methyl-6-(3,5-difluoro-phenoxy)-isoquinoline-3-carboxamido]acetic acid], the “Cell EPO* (mIU/ml)” value is reported as 105 mIU/ml.
